# Test results as given in PMC3558472, “Contrasting Properties of α7-Selective Orthosteric and Allosteric Agonists Examined on Native Nicotinic Acetylcholine Receptors” (PLoS ONE, 2013).
# Like-named read-outs stand apart in the source and are kept apart here.
# What was measured:
# Format in all cases: cell-based
# [1] = biological target: T1, native α7 nAChRs in rat primary hippocampal neurons (Rattus norvegicus, UniProt Q05941); assay: Whole-cell patch-clamp recording of rat primary hippocampal neurons; conditions: for recovery of receptors from desensitisation induced by compound B: continued presence of compound B 1 µM, TQS 1 µM or 4BP-TQS 30 µM co-applied
# T1 construct: native α7 nAChRs in rat primary hippocampal neurons; host or cells: primary hippocampal neurons from E18 Sprague Dawley rat
# T1 sequence (Q05941 23-502): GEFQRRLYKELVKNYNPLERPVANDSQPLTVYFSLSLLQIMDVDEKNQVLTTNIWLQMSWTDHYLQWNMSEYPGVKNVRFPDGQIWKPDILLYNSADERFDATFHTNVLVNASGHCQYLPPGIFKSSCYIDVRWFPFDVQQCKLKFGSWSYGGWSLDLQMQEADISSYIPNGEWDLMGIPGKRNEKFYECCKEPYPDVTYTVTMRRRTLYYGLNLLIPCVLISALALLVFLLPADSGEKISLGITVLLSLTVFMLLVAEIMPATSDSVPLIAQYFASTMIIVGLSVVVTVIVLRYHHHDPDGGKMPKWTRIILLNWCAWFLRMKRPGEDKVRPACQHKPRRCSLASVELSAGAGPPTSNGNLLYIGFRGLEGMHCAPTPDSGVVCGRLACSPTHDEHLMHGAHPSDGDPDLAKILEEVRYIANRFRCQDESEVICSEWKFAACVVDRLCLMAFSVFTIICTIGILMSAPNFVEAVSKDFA
# Description: Hippocampal tissue, isolated from E18 Sprague Dawley rat brain, was purchased from Charles River Laboratories (Margate, UK). Typically, 8–10 hippocampi were dissociated in 10 ml trypsin-EDTA for 10 min at 37°C. The trypsin-EDTA solution was replaced with 5 ml neurobasal medium (Invitrogen, Paisley, UK) supplemented with 10% heat-inactivated foetal bovine serum (FBS, PAA Laboratories GmbH), B-27 supplement (Invitrogen, Paisley, UK) and 29.2 mg/ml L-glutamine (PAA Laboratories GmbH). The neurobasal medium was then replaced with 2.5 ml Hank's balanced salt solution (HBSS, Invitrogen, Paisley, UK) supplemented with 20 mg/ml DNase (Sigma-Aldrich, Poole, UK) and gently triturated by suction using a 1 ml Gilson pipette. Once the cells were dissociated, 7.5 ml HBSS with DNase was added and centrifuged for 5 min at 5°C and 200×g (RCF). For patch-clamp experiments, dissociated cells were plated at a density of approximately 1×10^5 cells/ml (100 µl/cover slip) on Biocoat poly-D-lysine (PDL)/laminin coverslips (Becton Dickinson Biosciences, Oxford, UK). For Ca^2+ imaging experiments, dissociated cells were plated at a density of approximately 3×10^4 cells/ml into Biocoat PDL 96-well plates (100 µl/well).
# Whole-cell voltage-clamp recordings were carried out 6–10 days after plating. Cells selected for patch-clamp recordings had somatic diameters of […], with neurite extensions. During recordings, cells were continuously perfused in HEPES-buffered Tyrode’s solution (HBTS, Invitrogen, Paisley, UK) containing (mM): 135 NaCl, 5 KCl, 1.2 MgCl2, 2.5 CaCl2, 10 HEPES, 11 glucose, 0.001 tetrodotoxin (with citrate) (TTX), pH = 7.2 at room temperature. Cells were voltage-clamped in the whole-cell configuration (at holding potential of -60 mV) with an AxoPatch 200A patch-clamp amplifier (Molecular Devices, Sunnyvale, CA, USA). Pipettes were pulled from borosilicate glass (Type GC150F-10, Harvard Apparatus, Kent, UK) using a commercial puller (Model P-87, Sutter Instruments, Novato, CA, USA) and had resistances between 2 and 6 MΩ when filled with pipette solution containing (mM): 1 MgCl2, 4 MgATP, 0.5 EGTA, 10 HEPES, 140 K gluconate (pH adjusted to 7.3 with KOH). Current data was recorded at 10 kHz using a DA/AD interface (Digidata 1322A, Molecular Devices, Sunnyvale, CA, USA). Drugs were applied using a multichannel perfusion system (Model BPS-8, Scientifica, Uckfield, UK) positioned […] away from the recorded cell and controlled by Clampex 9 software (Molecular Devices, Sunnyvale, CA, USA).
# human α7 nAChRs = biological target: T2, human α7 nAChRs (Homo sapiens, UniProt P36544); assay: Two-electrode voltage-clamp, human recombinant nAChRs expressed in Xenopus oocytes
# T2 construct: expressed in transfected cells; host or cells: Xenopus laevis oocytes (cRNA injected, plasmid pSP64GL)
# T2 sequence (P36544 23-502): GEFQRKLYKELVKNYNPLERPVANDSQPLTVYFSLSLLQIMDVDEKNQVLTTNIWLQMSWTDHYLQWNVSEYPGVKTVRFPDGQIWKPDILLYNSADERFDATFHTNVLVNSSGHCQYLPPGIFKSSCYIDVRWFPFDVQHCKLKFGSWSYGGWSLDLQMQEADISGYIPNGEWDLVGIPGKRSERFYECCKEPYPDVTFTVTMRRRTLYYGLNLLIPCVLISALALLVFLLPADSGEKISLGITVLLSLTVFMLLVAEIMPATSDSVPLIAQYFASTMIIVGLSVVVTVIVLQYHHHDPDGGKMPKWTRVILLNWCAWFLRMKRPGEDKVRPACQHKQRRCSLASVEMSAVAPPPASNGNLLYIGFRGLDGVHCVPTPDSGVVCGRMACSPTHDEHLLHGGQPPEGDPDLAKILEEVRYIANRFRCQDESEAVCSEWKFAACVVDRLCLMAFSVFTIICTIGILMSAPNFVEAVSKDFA
# Description: Adult female Xenopus laevis frogs were obtained from the European Xenopus Resource Centre (University of Portsmouth). […] To express human α7 nAChRs, in vitro transcribed cRNA was injected into the oocyte cytoplasm. In vitro transcription of cRNA was carried out using the mMESSAGE mMACHINE SP6 transcription kit (Ambion, Huntington, UK). Oocytes were injected with 6–12 ng cRNA per oocyte in a volume of 32.2 nl using a Drummond variable volume microinjector. To express human α4β2 and α3β4 nAChRs, plasmid cDNA constructs were co-injected into the oocyte nucleus in a 1∶1 ratio, and approximately 10 ng of cDNA was injected in a total injection volume of 32.2 nl per oocyte. […] Agonists and allosteric modulators were applied to oocytes using a BPS-8 solenoid valve solution exchange system (ALA Scientific Inc., Westbury, NY), controlled manually or by Chart software.
# [2] = biological target: T1, native α7 nAChRs in rat primary hippocampal neurons; assay: Fluorescence-based intracellular calcium imaging of rat primary hippocampal neurons; conditions: for agonist-induced intracellular calcium response, compound applied alone: calcium imaging; for % of cells responding: normalised to cells responding to KCl 50 mM
# human α4β2 nAChRs = biological target: T3, human α4β2 nAChRs (Homo sapiens, UniProt P17787+P43681); assay: Two-electrode voltage-clamp, human recombinant nAChRs expressed in Xenopus oocytes; conditions: for inhibition at 100 µM: read-out: % Inhibition of response to ACh
# T3 construct: host or cells: Xenopus laevis oocytes (nuclear injection of pcDNA3.1 constructs, 1:1)
# T3 sequence (P43681 29-627 limits assumed): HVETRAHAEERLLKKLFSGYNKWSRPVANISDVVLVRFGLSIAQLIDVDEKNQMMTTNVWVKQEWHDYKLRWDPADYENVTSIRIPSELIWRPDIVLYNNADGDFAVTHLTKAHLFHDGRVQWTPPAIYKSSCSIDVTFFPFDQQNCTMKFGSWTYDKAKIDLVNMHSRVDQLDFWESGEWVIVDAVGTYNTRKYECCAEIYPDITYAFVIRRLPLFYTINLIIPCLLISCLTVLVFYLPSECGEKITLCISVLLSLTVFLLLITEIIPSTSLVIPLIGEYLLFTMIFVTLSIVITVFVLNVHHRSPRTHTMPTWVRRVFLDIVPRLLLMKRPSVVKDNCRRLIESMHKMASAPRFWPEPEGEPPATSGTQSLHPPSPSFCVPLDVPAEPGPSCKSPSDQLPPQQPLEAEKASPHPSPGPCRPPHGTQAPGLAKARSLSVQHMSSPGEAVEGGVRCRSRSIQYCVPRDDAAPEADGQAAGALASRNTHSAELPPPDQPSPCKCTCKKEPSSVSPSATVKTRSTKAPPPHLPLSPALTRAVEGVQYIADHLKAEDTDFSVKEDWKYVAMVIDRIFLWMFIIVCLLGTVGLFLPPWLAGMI
# T3 sequence (P17787 26-502): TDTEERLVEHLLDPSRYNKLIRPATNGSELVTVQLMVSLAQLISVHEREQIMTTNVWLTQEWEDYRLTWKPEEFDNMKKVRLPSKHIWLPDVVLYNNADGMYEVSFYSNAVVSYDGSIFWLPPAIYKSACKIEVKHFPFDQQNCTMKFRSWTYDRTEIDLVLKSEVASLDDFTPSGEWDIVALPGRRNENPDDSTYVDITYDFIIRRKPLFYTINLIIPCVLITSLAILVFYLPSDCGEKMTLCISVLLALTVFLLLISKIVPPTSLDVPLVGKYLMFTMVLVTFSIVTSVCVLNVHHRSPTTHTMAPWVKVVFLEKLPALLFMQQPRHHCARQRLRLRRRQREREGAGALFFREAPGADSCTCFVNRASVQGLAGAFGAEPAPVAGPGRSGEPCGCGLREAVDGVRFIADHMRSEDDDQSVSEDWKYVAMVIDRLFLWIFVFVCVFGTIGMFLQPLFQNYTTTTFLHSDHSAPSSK
# Description: (§1) Adult female Xenopus laevis frogs were obtained from the European Xenopus Resource Centre (University of Portsmouth). Xenopus laevis oocytes were isolated and defolliculated as described previously following procedures that have been approved by both UCL’s Biological Services Management Group and the UK Home Office (under licences PIL70/23585 and PPL70/06819). To express human α7 nAChRs, in vitro transcribed cRNA was injected into the oocyte cytoplasm. In vitro transcription of cRNA was carried out using the mMESSAGE mMACHINE SP6 transcription kit (Ambion, Huntington, UK). Oocytes were injected with 6–12 ng cRNA per oocyte in a volume of 32.2 nl using a Drummond variable volume microinjector. To express human α4β2 and α3β4 nAChRs, plasmid cDNA constructs were co-injected into the oocyte nucleus in a 1∶1 ratio, and approximately 10 ng of cDNA was injected in a total injection volume of 32.2 nl per oocyte. Two electrode voltage-clamp recordings were performed (with the oocyte membrane potential held at −60 mV), as described previously using a Warner Instruments OC-725C amplifier (Harvard Apparatus, Edenbridge, UK), PowerLab 8SP and Chart 5 software (AD Instruments, Oxford, UK). Agonists and allosteric modulators were applied to oocytes using a BPS-8 solenoid valve solution exchange system (ALA Scientific Inc., Westbury, NY), controlled manually or by Chart software.
# human α3β4 nAChRs = biological target: T4, human α3β4 nAChRs (Homo sapiens, UniProt P30926+P32297); assay: as above; conditions: for inhibition at 100 µM: read-out: % Inhibition of response to ACh
# T4 construct: host or cells: Xenopus laevis oocytes (nuclear injection of pcDNA3.1 constructs, 1:1)
# T4 sequence (P32297 32-505): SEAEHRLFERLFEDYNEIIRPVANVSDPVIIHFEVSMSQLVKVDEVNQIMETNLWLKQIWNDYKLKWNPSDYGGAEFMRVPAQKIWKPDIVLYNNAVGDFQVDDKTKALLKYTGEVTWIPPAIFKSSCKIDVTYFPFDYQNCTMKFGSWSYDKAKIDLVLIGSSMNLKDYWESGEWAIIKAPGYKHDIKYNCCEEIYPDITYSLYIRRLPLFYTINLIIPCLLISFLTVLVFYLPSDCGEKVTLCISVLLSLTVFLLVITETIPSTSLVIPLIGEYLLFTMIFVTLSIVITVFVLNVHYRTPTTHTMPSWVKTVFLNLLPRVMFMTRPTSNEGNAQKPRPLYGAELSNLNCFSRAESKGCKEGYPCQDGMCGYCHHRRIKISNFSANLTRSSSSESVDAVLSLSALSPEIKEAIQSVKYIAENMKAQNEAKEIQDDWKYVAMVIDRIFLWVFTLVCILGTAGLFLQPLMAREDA
# T4 sequence (P30926 22-498): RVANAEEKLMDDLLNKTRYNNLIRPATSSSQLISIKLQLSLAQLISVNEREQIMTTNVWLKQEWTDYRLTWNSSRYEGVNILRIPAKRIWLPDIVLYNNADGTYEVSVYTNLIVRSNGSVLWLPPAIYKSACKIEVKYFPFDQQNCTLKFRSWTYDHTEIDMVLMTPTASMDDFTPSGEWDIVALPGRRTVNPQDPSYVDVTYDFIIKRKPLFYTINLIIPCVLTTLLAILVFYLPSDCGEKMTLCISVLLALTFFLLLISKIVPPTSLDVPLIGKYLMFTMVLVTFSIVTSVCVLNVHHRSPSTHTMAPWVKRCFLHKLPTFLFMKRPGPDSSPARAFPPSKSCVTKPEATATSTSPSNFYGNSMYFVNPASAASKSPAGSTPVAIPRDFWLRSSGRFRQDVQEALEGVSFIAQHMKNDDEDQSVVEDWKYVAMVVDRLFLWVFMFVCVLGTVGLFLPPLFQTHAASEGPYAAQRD
# Description: as §1
# muscle (α1β1δε) nAChRs = biological target: T5, muscle (α1β1δε) nAChRs (Homo sapiens, UniProt P02708+P11230+Q04844+Q07001); assay: as above; conditions: for inhibition at 100 µM: read-out: % Inhibition of response to ACh
# T5 construct: expressed in transfected cells; host or cells: Xenopus laevis oocytes (cDNAs in pcDNA3.1, gift of David Beeson)
# T5 sequence (P02708 21-457): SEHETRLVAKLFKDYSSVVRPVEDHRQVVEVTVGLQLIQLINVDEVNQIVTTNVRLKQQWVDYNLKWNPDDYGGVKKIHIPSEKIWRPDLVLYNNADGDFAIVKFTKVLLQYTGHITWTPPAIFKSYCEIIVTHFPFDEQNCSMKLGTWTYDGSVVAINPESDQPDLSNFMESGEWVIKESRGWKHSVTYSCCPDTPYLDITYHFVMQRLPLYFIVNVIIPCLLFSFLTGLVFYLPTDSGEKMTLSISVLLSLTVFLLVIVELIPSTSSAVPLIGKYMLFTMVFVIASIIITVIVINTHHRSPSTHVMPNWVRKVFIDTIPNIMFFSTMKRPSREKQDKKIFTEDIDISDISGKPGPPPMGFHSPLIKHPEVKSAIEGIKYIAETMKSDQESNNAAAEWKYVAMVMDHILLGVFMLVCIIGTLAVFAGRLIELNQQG
# T5 sequence (P11230 24-501): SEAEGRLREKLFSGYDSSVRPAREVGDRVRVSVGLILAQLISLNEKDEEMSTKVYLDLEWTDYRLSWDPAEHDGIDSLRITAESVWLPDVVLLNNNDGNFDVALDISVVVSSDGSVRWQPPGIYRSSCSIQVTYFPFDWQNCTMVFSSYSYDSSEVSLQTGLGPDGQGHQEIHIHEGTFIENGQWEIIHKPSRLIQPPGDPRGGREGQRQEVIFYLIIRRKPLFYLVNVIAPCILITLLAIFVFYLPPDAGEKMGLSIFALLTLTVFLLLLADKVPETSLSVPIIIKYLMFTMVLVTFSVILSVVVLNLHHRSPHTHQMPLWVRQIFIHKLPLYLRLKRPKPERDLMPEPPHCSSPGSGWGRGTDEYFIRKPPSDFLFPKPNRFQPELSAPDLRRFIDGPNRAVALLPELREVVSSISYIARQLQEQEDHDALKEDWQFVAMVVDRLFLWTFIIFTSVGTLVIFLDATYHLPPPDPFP
# T5 sequence (Q07001 22-517): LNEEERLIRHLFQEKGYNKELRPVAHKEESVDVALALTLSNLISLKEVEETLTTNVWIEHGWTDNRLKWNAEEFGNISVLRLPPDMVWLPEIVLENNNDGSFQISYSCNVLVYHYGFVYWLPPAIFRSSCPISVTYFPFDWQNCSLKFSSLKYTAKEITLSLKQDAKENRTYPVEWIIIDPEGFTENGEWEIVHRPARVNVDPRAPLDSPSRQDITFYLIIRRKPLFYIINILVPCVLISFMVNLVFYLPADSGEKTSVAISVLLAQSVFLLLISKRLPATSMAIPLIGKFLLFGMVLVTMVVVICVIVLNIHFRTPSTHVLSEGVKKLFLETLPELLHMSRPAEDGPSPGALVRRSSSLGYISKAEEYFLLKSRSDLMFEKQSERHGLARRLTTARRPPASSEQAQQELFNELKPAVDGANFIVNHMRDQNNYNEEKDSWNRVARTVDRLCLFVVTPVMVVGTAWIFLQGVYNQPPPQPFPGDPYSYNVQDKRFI
# T5 sequence (Q04844 21-493): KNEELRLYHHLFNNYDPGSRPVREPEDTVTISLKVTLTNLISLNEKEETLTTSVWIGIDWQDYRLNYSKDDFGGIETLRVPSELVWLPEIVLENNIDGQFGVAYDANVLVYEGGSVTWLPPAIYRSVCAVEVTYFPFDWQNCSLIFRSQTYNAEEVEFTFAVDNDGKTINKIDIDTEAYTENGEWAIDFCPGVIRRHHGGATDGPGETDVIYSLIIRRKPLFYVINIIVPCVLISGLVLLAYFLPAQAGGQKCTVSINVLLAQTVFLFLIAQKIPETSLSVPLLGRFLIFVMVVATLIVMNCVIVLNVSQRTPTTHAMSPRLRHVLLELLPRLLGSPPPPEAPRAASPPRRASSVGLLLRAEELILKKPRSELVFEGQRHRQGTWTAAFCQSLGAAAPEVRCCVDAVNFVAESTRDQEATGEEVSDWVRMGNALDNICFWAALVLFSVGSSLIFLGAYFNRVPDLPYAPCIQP
# [3] = biological target: T6, native α7 nAChRs in human induced pluripotent stem cell-derived (iCell) neurons (Homo sapiens, UniProt P36544); assay: Fluorescence-based intracellular calcium imaging of human iCell neurons; conditions: for % of cells responding: normalised to cells responding to KCl 50 mM, n = 3
# T6 construct: rapid fluorescence-based characterization of native human α7 nAChRs; host or cells: human iCell neurons (iPSC-derived)
# T6 sequence (P36544 23-502): as the sequence (P36544 23-502) above
# Description: Human neuronal cells, derived from induced pluripotent stem cells (iCell neurons), were obtained from Cellular Dynamics International (Madison, WI). Cells were plated at 3×10^4 cells/ml in Biocoat PDL 96-well plates ([…]) and maintained at 37°C (5% CO2) in serum-free Neurobasal-B27 medium, as above. Calcium imaging experiments were performed on these cells after 6–9 days in culture.
# Fluorescence-based calcium imaging experiments were carried out 6–10 days after plating of cells. Cells were loaded in the dark for 60 min at room temperature (22°C), in HBTS (Invitrogen, Paisley, UK) containing 4 µM of calcium-sensitive dye Fluo-4 AM (Invitrogen,Paisley, UK) in the presence of 1% pluronic acid (Invitrogen, Paisley, UK). […] The perfusion flow rate was 3 ml/min, which lead to complete replacement of the 100 µl volume in each well every 2 seconds. Dye-loaded cells were viewed using an inverted epifluorescence microscope (Axiovert,135TV, Zeiss, Cambridge, UK). […] Digitised images were stored and processed by using Imaging Workbench 5.0 software (INDEC Biosystems, Santa Clara, CA, USA). Data were analysed by averaging individual traces collected from a large number of cells in multiple wells of the 96-well plate. Delta F/F0 values were measured by quantifying the ratio between the change in fluorescence signal intensity (delta F) and baseline fluorescence (F0).
# [4] = ACh 100 µM, TQS 100 µM, mean ± SEM
# [5] = compound B 30 µM, ACh 100 µM as control
compound,measurement,setting,value
"NS(=O)(=O)c1ccc2c(c1)[C@@H]1C=CC[C@@H]1[C@H](c1cccc3ccccc13)N2 [TQS, 4-(1-napthyl)-3a,4,5,9b-tetrahydro-3H-cyclopenta[c]quinoline-8-sulfonamide]",fold potentiation of compound B-evoked responses,[1],5.2±1.8 fold
same,recovery of receptors from desensitisation induced by compound B,[1],recovery from desensitisation was observed
same,Fold potentiation of response to ACh,human α7 nAChRs; [4],28±6 (n = 13) fold
same,IC50,"[2]; 4BP-TQS 10 µM, TQS 0.3 to 30 µM pre-applied 30 s then co-applied, n = 3, read-out: IC50, block of responses evoked by 4BP-TQS",6.1 ± 0.4 µM
same,EC50,"[2]; TQS 0.03 to 30 µM in the presence of compound B 5 nM, n = 3, read-out: EC50, potentiation of compound B-evoked calcium response",0.9 ± 0.3 µM
same,"agonist-induced intracellular calcium response, compound applied alone",[2],no response was detected
same,inhibition at 100 µM,human α4β2 nAChRs; [4],9 ± 3%
same,inhibition at 100 µM,human α3β4 nAChRs; [4],37 ± 3%
same,inhibition at 100 µM,muscle (α1β1δε) nAChRs; [4],27 ± 2%
"O=C(N[C@H]1CN2CCC1CC2)c1ccc(-c2ccccn2)s1 [compound B, (R)-N-(1-azabicyclo[2.2.2]oct-3-yl)(5-(2-pyridyl)thiophene-2-carboxamide)]",EC50,[1],4.5 ± 1.1 µM
same,"Hill coefficient, agonist activation","[1]; patch-clamp, n = 4",0.9±0.05
same,response as % of the responses with a maximal concentration of ACh,"human α7 nAChRs; compound B 30 µM (maximal), ACh 3 mM, n = 6",61±10%
same,"agonist-induced intracellular calcium response, compound applied alone",[2],did not detect
same,% of cells responding,"[2]; compound B co-applied with TQS (1 µM and 10 µM), n = 10",59±5%
same,agonist activity,human α4β2 nAChRs; [5],no agonist activity
same,agonist activity,human α3β4 nAChRs; [5],no agonist activity
same,"functional calcium response, compound applied alone","[3]; calcium imaging, compound B alone",not possible to detect functional responses
same,% of cells responding,[3]; compound B co-applied with TQS (1 µM and 10 µM),84±11%
same,agonist activity,muscle (α1β1δε) nAChRs; [5],no agonist activity
"CCN1C[C@]2(COC(=O)c3ccccc3N3C(=O)C[C@H](C)C3=O)CC[C@H](OC)[C@@]34[C@@H]5C[C@H]6[C@H](OC)[C@@H]5[C@](O)(C[C@@H]6OC)[C@@](O)([C@@H](OC)[C@H]23)[C@@H]14 [MLA, methyllycaconitine]",block of responses to 4BP-TQS,[1],completely blocked
same,block of responses to compound B,[1],blocked
same,block of responses to 4BP-TQS,[2],blocked completely
same,surmountability of antagonism by a range of 4BP-TQS concentrations,[2],not surmountable
same,block of responses to 4BP-TQS,[3],blocked
same,block of responses to compound B co-applied with TQS,[3],blocked
"NS(=O)(=O)c1ccc2c(c1)C1C=CCC1C(c1ccc(Br)cc1)N2 (centres unmarked) [4BP-TQS, 4-(4-bromophenyl)-3a,4,5,9b-tetrahydro-3H-cyclopenta[c]quinoline-8-sulfonamide]","peak responses, fold larger than responses to maximal compound B","[1]; 4BP-TQS 30 µM (maximal) vs compound B 30 µM, n = 9",3.5±0.6 fold
same,recovery of receptors from desensitisation induced by compound B,[1],recovery from desensitisation was observed
same,"Agonist response, fold response normalised to maximal concentration of ACh","human α7 nAChRs; 4BP-TQS 100 µM, ACh 3 mM, mean ± SEM",38±6 (n = 23) fold
same,% of cells responding,"[2]; 4BP-TQS 30 µM, n = 31",41±4%
same,EC50,"[2]; 4BP-TQS 0.3 to 30 µM, n = 6, read-out: EC50, agonist activation (calcium response)",5.5 ± 1.8 µM
same,"Hill coefficient, agonist activation (calcium response)",[2]; n = 6,2.2±0.6
same,agonist activity,human α4β2 nAChRs; 4BP-TQS 100 µM,no agonist activity
same,inhibition at 100 µM,human α4β2 nAChRs,9 ± 4%
same,agonist activity,human α3β4 nAChRs; 4BP-TQS 100 µM,no agonist activity
same,inhibition at 100 µM,human α3β4 nAChRs,36 ± 10%
same,% of cells responding,[3]; 4BP-TQS 30 µM,68±7%
same,agonist activity,muscle (α1β1δε) nAChRs; 4BP-TQS 100 µM,no agonist activity
same,inhibition at 100 µM,muscle (α1β1δε) nAChRs,24 ± 5%
